Measured values from ChEMBL document CHEMBL4813950, “Comparing the efficacy and selectivity of Ck2 inhibitors. A phosphoproteomics approach” (Eur J Med Chem, 2021).
Active and inactive are the calls of the source. The rule behind the calls is not given here.

What was measured:
Assay type in all cases: cell-based
[1] = molecular target: Nucleolar RNA helicase 2 (Mus musculus) (UniProt Q9JIK5); assay: Inhibition of Ddx21 in mouse C2C12 cells assessed as reduction in phospho-sites occupancy at 4 uM after 5 hrs by SILAC based LC-MS/MS analysis relative to control
[2] = molecular target: Autophagy-related protein 9A (Mus musculus) (UniProt Q68FE2); assay: Inhibition of Atg9a in mouse C2C12 cells assessed as reduction in phospho-sites occupancy at 4 uM after 5 hrs by SILAC based LC-MS/MS analysis relative to control
[3] = molecular target: tRNA (guanine(26)-N(2))-dimethyltransferase (Mus musculus) (UniProt Q3TX08); assay: Inhibition of Trmt1 in mouse C2C12 cells assessed as reduction in phospho-sites occupancy at 4 uM after 5 hrs by SILAC based LC-MS/MS analysis relative to control
[4] = molecular target: Centrosomal protein of 170 kDa (Mus musculus) (UniProt Q6A065); assay: Inhibition of Cep170 in mouse C2C12 cells assessed as reduction in phospho-sites occupancy at 4 uM after 5 hrs by SILAC based LC-MS/MS analysis relative to control
Kinectin (Mus musculus) = Kinectin (Mus musculus) (UniProt Q61595); assay: Inhibition of Ktn1 in mouse C2C12 cells assessed as reduction in phospho-sites occupancy at 4 uM after 5 hrs by SILAC based LC-MS/MS analysis relative to control
[5] = molecular target: DNA replication licensing factor MCM2 (Mus musculus) (UniProt P97310); assay: Inhibition of Mcm2 in mouse C2C12 cells assessed as reduction in phospho-sites occupancy at 4 uM after 5 hrs by SILAC based LC-MS/MS analysis relative to control
[6] = molecular target: EH domain-containing protein 2 (Mus musculus) (UniProt Q8BH64); assay: Inhibition of Ehd2 in mouse C2C12 cells assessed as reduction in phospho-sites occupancy at 4 uM after 5 hrs by SILAC based LC-MS/MS analysis relative to control
[7] = molecular target: Serine/arginine repetitive matrix protein 1 (Mus musculus) (UniProt Q52KI8); assay: Inhibition of Srrm1 in mouse C2C12 cells assessed as reduction in phospho-sites occupancy at 4 uM after 5 hrs by SILAC based LC-MS/MS analysis relative to control
[8] = molecular target: Rho GTPase-activating protein 35 (Mus musculus) (UniProt Q91YM2); assay: Inhibition of Arhgap35 in mouse C2C12 cells assessed as reduction in phospho-sites occupancy at 4 uM after 5 hrs by SILAC based LC-MS/MS analysis relative to control
[9] = molecular target: Transcriptional regulator ATRX (Mus musculus) (UniProt Q61687); assay: Inhibition of ATRX in mouse C2C12 cells assessed as reduction in phospho-sites occupancy at 4 uM after 5 hrs by SILAC based LC-MS/MS analysis relative to control
[10] = molecular target: Protein transport protein Sec31A (Mus musculus) (UniProt Q3UPL0); assay: Inhibition of Sec31a in mouse C2C12 cells assessed as reduction in phospho-sites occupancy at 4 uM after 5 hrs by SILAC based LC-MS/MS analysis relative to control
[11] = molecular target: Fermitin family homolog 2 (Mus musculus) (UniProt Q8CIB5); assay: Inhibition of Fermt2 in mouse C2C12 cells assessed as reduction in phospho-sites occupancy at 4 uM after 5 hrs by SILAC based LC-MS/MS analysis relative to control
[12] = molecular target: Desmoyokin (Mus musculus) (UniProt Q61484); assay: Inhibition of AHNAK in mouse C2C12 cells assessed as reduction in phospho-sites occupancy at 4 uM after 5 hrs by SILAC based LC-MS/MS analysis relative to control
[13] = molecular target: Dihydropyrimidinase-related protein 3 (Mus musculus) (UniProt Q62188); assay: Inhibition of Dihydropyrimidinase-related protein 3 in mouse C2C12 cells assessed as reduction in phospho-sites occupancy at 4 uM after 5 hrs by SILAC based LC-MS/MS analysis relative to control
[14] = molecular target: La-related protein 1 (Mus musculus) (UniProt Q6ZQ58); assay: Inhibition of Larp1 in mouse C2C12 cells assessed as reduction in phospho-sites occupancy at 4 uM after 5 hrs by SILAC based LC-MS/MS analysis relative to control
[15] = molecular target: Pleckstrin homology-like domain family B member 1 (Mus musculus) (UniProt Q6PDH0); assay: Inhibition of Phldb1 in mouse C2C12 cells assessed as reduction in phospho-sites occupancy at 4 uM after 5 hrs by SILAC based LC-MS/MS analysis relative to control
[16] = molecular target: 1-phosphatidylinositol 4,5-bisphosphate phosphodiesterase delta-3 (Mus musculus) (UniProt Q8K2J0); assay: Inhibition of Plcd3 in mouse C2C12 cells assessed as reduction in phospho-sites occupancy at 4 uM after 5 hrs by SILAC based LC-MS/MS analysis relative to control
[17] = molecular target: Lamina-associated polypeptide 2, isoforms beta/delta/epsilon/gamma (Mus musculus) (UniProt Q61029); assay: Inhibition of LAP2B epsilon in mouse C2C12 cells assessed as reduction in phospho-sites occupancy at 4 uM after 5 hrs by SILAC based LC-MS/MS analysis relative to control
[18] = molecular target: Cyclin-dependent kinase 4 (Mus musculus) (UniProt P30285); assay: Inhibition of Cdk4 in mouse C2C12 cells assessed as reduction in phospho-sites occupancy at 4 uM after 5 hrs by SILAC based LC-MS/MS analysis relative to control
[19] = molecular target: WASH complex subunit 2 (Mus musculus) (UniProt Q6PGL7); assay: Inhibition of Washc2 in mouse C2C12 cells assessed as reduction in phospho-sites occupancy at 4 uM after 5 hrs by SILAC based LC-MS/MS analysis relative to control
[20] = molecular target: E3 ubiquitin-protein ligase NEDD4 (Mus musculus) (UniProt P46935); assay: Inhibition of Nedd4 in mouse C2C12 cells assessed as reduction in phospho-sites occupancy at 4 uM after 5 hrs by SILAC based LC-MS/MS analysis relative to control
[21] = molecular target: T1, Casein kinase 2 (Mus musculus) (UniProt Q60737+P67871+O54833+Q8CH19); assay: Inhibition of CK2 in mouse C2C12 cells assessed as reduction in Akt phosphorylation at S129 residues at 1 to 4 uM by Western blot analysis; conditions: dose 1-4 µM
[22] = molecular target: T1, Casein kinase 2 (Mus musculus); assay: Inhibition of CK2 in mouse C2C12 cells assessed as reduction in CDC37 phosphorylation at S13 residues at 1 to 4 uM by Western blot analysis; conditions: dose 1-4 µM
[23] = molecular target: T1, Casein kinase 2 (Mus musculus); assay: Inhibition of CK2 in mouse C2C12 cells assessed as reduction in CK2 substrates phosphorylation at 1 to 4 uM by Western blot analysis; conditions: dose 1-4 µM

O=C(O)c1ccc2c(c1)nc(Nc1cccc(Cl)c1)c1ccncc12
fold change (FC) [1]: 1.85 | fold change (FC) [2]: 1.5 | fold change (FC) [3]: 1.54 | fold change (FC) [4]: 1.56 | fold change (FC) (Kinectin (Mus musculus)): 1.54 | fold change (FC) [5]: 1.83 | fold change (FC) [6]: 1.65 | fold change (FC) [7]: 1.7 | fold change (FC) [8]: 1.95 | fold change (FC) [9]: 2.22 | fold change (FC) [10]: 2.28 | fold change (FC) [11]: 2.53 | fold change (FC) [12]: 1.54 | fold change (FC) [13]: 2.57 | fold change (FC) [14]: 1.84 | fold change (FC) [15]: 2.12 | fold change (FC) [16]: 2.53 | fold change (FC) [17]: 1.82 | fold change (FC) [18]: 2.6 | fold change (FC) [19]: 3.41 | fold change (FC) [20]: 3.66 | inhibition [21]: Active | inhibition [22]: Active | inhibition [23]: Active
